pIC50: −log10 of the molar value.
How the values were obtained:
[1] = system: Human Peripheral Blood Mononuclear Cells (PBMC); assay: PBMC cell assay (IL-1β assay with human PBMC, LPS stimulated, ELISA); assay type: cell-based; conditions: LPS 5 ng/ml, 16-18 hr
Source text: IL-L1β Assay with a Mixed Population of Human Peripheral Blood Mononuclear Cells (PBMC) or Enriched Adherent Mononuclear Cells
Processing of pre-IL-1β by ICE can be measured in cell culture using a variety of cell sources. Human PBMC obtained from healthy donors provides a mixed population of lymphocyte subtypes and mononuclear cells that produce a spectrum of interleukins and cytokines in response to many classes of physiological stimulators. Adherent mononuclear cells from PBMC provides an enriched source of normal monocytes for selective studies of cytokine production by activated cells.
An initial dilution series of test compound in DMSO or ethanol is prepared, with a subsequent dilution into RPMI-10% FBS media (containing 2 mM L-glutamine, 10 mM HEPES, 50 U and 50 ug/ml pen/strep) respectively to yield drugs at 4× the final test concentration containing 0.4% DMSO or 0.4% ethanol. The final concentration of DMSO is 0.1% for all drug dilutions. A concentration titration which brackets the apparent Ki for a test compound determined in an ICE inhibition assay is generally used for the primary compound screen.
Generally 5-6 compound dilutions are tested and the cellular component of the assay is performed in duplicate, with duplicate ELISA determinations on each cell culture supernatant.
Buffy coat cells isolated from one pint human blood (yielding 40-45 ml final volume plasma plus cells) are diluted with media to 80 ml and LeukoPREP separation tubes (Becton Dickinson) are each overlaid with 10 ml of cell suspension. After 15 min centrifugation at 1500-1800 xg, the plasma/media layer is aspirated and then the mononuclear cell layer is collected with a Pasteur pipette and transferred to a 15 ml conical centrifuge tube (Corning). […] The PBMC pellet is resuspended in a small volume of media, the cells are counted and adjusted to 6×10^6 cells/ml. […]
The skilled practitioner realizes that values obtained in cell assays, such as those described herein, can depend on multiple factors. The values may not necessarily represent fine quantitative results.

[2] = system: Human whole blood; assay: Whole blood assay for IL-1β production; assay type: cell-based; conditions: 16-18 hr
Procedure: Whole Blood Assay for IL-1β Production
The whole blood assay is a simple method for measuring the production of IL-1β (or other cytokines) and the activity of potential inhibitors. The complexity of this assay system, with its full complement of lymphoid and inflammatory cell types, spectrum of plasma proteins and red blood cells is an ideal in vitro representation of human in vivo physiologic conditions.
Set incubator or water bath at 30° C. Aliquot 0.25 ml of blood into 1.5 ml eppendorf tubes, making sure to invert the whole blood sample tubes after every two aliquots. Differences in replicates may result if the cells sediment and are not uniformly suspended. Use of a positive displacement pipette will also minimize differences between replicate aliquots.
Prepare drug dilutions in sterile pyrogen-free saline by serial dilution. A dilution series which brackets the apparent Ki for a test compound determined in an ICE inhibition assay is generally used for the primary compound screen. For extremely hydrophobic compounds, prepare compound dilutions in fresh plasma obtained from the same blood donor or in PBS-containing 5% DMSO to enhance solubility.
Add 25 μl test compound dilution or vehicle control and gently mix the sample. Then add 5.0 μl LPS solution (250 ng/ml stocked prepared fresh: 5.0 ng/ml final concentration LPS), and mix again. Incubate the tubes at […] in a water bath for 16-18 hr with occasional mixing. Alternatively, the tubes can be placed in a rotator set at 4 rpm for the same incubation period. This assay should be set up in duplicate or triplicate with the following controls: negative control—no LPS; positive control—no test inhibitor; vehicle control—the highest concentration of DMSO or compound solvent used in the experiment. Additional saline is added to all control tubes to normalize volumes for both control and experimental whole blood test samples.
After the incubation period, whole blood samples are centrifuged for 10 minutes at ˜2000 rpm in the microfuge, plasma is transferred to a fresh microfuge tube and centrifuged at 1000×g to pellet residual platelets if necessary. Plasma samples may be stored frozen at −70° C. prior to assay for cytokine levels by ELISA.
R & D Systems (614 McKinley Place N.E. Minneapolis, Minn. 55413) Quantikine kits may be used for measurement of IL-1β and TNF-α. The assays are performed according to the manufacturer's directions. IL-1β levels of ˜1-5 ng/ml in positive controls among a range of individuals may be observed. A 1:200 dilution of plasma for all samples is usually sufficient for experiments for ELISA results to fall on the linear range of the ELISA standard curves. It may be necessary to optimize standard dilutions if you observe differences in the whole blood assay. Nerad, J. L. et al., J. Leukocyte Biol., 52, pp. 687-692 (1992).

[3] = Table 4, mature IL-1β in supernatant

Row | Compound | pIC50 ([2]; Table 2, LPS 5.0 ng/ml) | pIC50 ([2]; Table 4, LPS 5.0 ng/ml) | further results
1 | O=C[C@H](CC(=O)O)NC(=O)CN1C(=O)C(NC(=O)OCc2ccccc2)N=C(c2ccccc2)c2ccccc21 (stereo partly drawn) [Example 1, (3S)-3-[3(R,S)-1,3-Dihydro-2-oxo-5-phenyl((benzyloxycarbonyl)amino)-2H-1,4-benzodiazepin-1-acetylamino]-4-oxobutyric acid] | – | – | pIC50 ([1]; Table 2, mature IL-1β in supernatant): 4.70
2 | Nc1c(Cl)cc(C(=O)NC2N=C(c3ccccc3)c3ccccc3N(CC(=O)N[C@H](C=O)CC(=O)O)C2=O)cc1Cl (some centres unmarked) [Example 7] | < 4.70 | – | –
3 | O=C[C@H](CC(=O)O)NC(=O)CN1C(=O)C(NC(=O)c2nccc3ccccc23)N=C(c2ccccc2)c2ccccc21 (some centres unmarked) [Example 11] | – | 5.05 | –
4 | Nc1ccc(C(=O)NC2N=C(c3ccccc3)c3ccccc3N(CC(=O)N[C@H](C=O)CC(=O)O)C2=O)cc1Cl (some centres unmarked) [Example 18] | < 4.70 | – | –
5 | Cc1cc(C(=O)NC2N=C(c3ccccc3)c3ccccc3N(CC(=O)N[C@H](C=O)CC(=O)O)C2=O)cc(C)c1O (some centres unmarked) [Example 19] | 5.00 | – | –
6 | O=C[C@H](CC(=O)O)NC(=O)CN1C(=O)C(NC(=O)c2cc(Cl)c(O)c(Cl)c2)N=C(c2ccccc2)c2ccccc21 (some centres unmarked) [Example 21] | 5.00 | – | –
7 | COc1ccc(Cl)cc1S(=O)(=O)NC1N=C(c2ccccc2)c2ccccc2N(CC(=O)N[C@H](C=O)CC(=O)O)C1=O (some centres unmarked) [Example 39] | – | < 4.70 | –
8 | COc1cccc(OC)c1C(=O)C(=O)NC1N=C(c2ccccc2)c2ccccc2N(CC(=O)N[C@H](C=O)CC(=O)O)C1=O (some centres unmarked) [Example 49] | – | – | pIC50 [1, 3]: < 5.10
9 | O=C[C@H](CC(=O)O)NC(=O)CN1C(=O)C(NC(=O)c2ccc(O)c(Cl)c2)N=C(c2ccccc2)c2ccccc21 (some centres unmarked) [Example 50] | – | – | pIC50 [1, 3]: < 5.10
10 | Cc1cc(C(=O)NC2N=C(c3ccccc3)c3cc(NC=O)ccc3N(CC(=O)N[C@H](C=O)CC(=O)O)C2=O)cc(C)c1O (some centres unmarked) [Example 58] | – | < 4.70 | –
11 | Cc1cc(C(=O)NC2N=C(c3ccccc3)c3cc(N)ccc3N(CC(=O)N[C@H](C=O)CC(=O)O)C2=O)cc(C)c1O (some centres unmarked) [Example 59] | – | 5.04 | –
